In ChEMBL document CHEMBL4765228, “Indole-like Trk receptor antagonists” (Eur J Med Chem, 2016):

What was measured:
[1] = molecular target: T1, High affinity nerve growth factor receptor (Homo sapiens, UniProt P04629); assay: Inhibition of TrkA (unknown origin)
[2] = molecular target: T1, High affinity nerve growth factor receptor; assay: Inhibition of GAL4 fused TrkA (unknown origin) expressed in PC12 cells transfected with pFA2-Elk plasmid and pFR-luciferase plasmid measured for 18 hrs by luciferase reporter gene assay; assay type: cell-based, Rattus norvegicus, PC-12
[3] = molecular target: T1, High affinity nerve growth factor receptor; assay: Inhibition of GST-fused TrkA (unknown origin) expressed in SF9 cells using H2N-RRRAAAEEIYGEINH2 peptide as substrate preincubated with ATP and Mg and measured by microtiter plate reader analysis

T1 sequence (P04629 whole entry, the tested form may be a part): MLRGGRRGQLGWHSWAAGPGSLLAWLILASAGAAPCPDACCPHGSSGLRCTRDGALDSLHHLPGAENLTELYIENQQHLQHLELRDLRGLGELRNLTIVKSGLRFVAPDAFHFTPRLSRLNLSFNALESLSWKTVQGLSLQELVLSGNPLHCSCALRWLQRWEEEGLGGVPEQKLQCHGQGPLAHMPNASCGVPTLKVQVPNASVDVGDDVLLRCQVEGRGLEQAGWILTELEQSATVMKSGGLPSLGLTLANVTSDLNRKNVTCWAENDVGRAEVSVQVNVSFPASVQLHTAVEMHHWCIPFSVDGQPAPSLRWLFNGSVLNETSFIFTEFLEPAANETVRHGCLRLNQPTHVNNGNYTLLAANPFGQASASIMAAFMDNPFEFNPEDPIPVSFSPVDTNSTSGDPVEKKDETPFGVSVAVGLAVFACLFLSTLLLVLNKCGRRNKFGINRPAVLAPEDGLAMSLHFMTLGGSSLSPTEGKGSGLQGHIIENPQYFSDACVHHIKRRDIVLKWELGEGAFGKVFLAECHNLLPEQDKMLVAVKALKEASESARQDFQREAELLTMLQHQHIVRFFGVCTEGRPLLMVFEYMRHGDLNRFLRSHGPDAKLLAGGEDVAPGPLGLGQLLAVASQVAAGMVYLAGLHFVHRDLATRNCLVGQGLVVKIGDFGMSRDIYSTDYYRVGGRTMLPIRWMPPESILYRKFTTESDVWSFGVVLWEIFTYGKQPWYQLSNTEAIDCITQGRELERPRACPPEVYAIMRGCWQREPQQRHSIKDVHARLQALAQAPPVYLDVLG

| Compound | IC50 [1] [nM] | IC50 [2] [nM] | IC50 [3] [nM] |
| --- | --- | --- | --- |
| O=C1Nc2ccccc2/C1=C\c1c(Cl)[nH]c2ccccc12 | > 10000 | – | – |
| Cc1[nH]c2ccccc2c1/C=C1\C(=O)Nc2ccccc21 | > 10000 | – | – |
| NS(=O)(=O)c1ccc(N/C=C2\C(=O)Nc3ccccc32)cc1 | – | – | 63 |

The next lines start with the values.

| IC50 [1] [nM] | IC50 [2] [nM] | IC50 [3] [nM] | Compound |
| --- | --- | --- | --- |
| 11.1 | 342 | – | NS(=O)(=O)c1ccc2c(c1)/C(=C/c1c[nH]c3ccccc13)C(=O)N2 |
| 5.22 | 366 | – | NS(=O)(=O)c1ccc2c(c1)/C(=C/c1c[nH]c3ccc(O)cc13)C(=O)N2 |
| 25.7 | 998 | – | Cn1cc(/C=C2\C(=O)Nc3ccccc32)c2ccccc21 |
